Data on 19 compounds can be found in US11987588B2, “Modulators of the beta-3 adrenergic receptor useful for the treatment or prevention of heart failure and disorders related thereto” (Arena Pharmaceuticals, Inc., priority 2017, dated 2024).

Beta-3 Adrenergic Receptor, sequence (P13945 whole entry, species assumed): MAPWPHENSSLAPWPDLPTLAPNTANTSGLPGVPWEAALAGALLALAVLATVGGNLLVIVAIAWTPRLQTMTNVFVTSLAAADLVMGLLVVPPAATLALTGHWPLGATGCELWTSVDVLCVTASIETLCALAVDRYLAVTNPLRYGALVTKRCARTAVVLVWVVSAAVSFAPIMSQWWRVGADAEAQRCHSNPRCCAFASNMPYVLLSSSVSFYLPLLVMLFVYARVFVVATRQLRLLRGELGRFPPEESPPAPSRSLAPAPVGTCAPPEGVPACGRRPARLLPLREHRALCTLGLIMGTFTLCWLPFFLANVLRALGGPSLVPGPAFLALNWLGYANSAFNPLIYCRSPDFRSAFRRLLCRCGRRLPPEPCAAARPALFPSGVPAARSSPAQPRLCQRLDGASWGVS

In this assay the target is Beta-3 Adrenergic Receptor (Homo sapiens (Human), UniProt P13945). The experiment in a line: Homogeneous Time-Resolved Fluorescence (HTRF) cAMP antagonist assay, IC50 determination. The assay is classed as cell-based. As to conditions: CHO-K1 cells stably expressing recombinant receptor, isoproterenol at EC90. The method in brief:
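Antagonist mode: isoproterenol at its predetermined EC90 added after compound to recombinant CHO-K1 cells in IBMX-containing PBS, 1 h, room temperature. Compounds tested as 5-fold, 10-point dilutions, top final typically 10 or 100 μM. HTRF signal converted to cAMP via standard curve, giving IC50.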
A general note: TR-FRET usually uses a lanthanide donor and a delayed reading to cut background.
For `CNS(=O)(=O)c1cccc(OC[C@@H](O)CN[C@H]2COC3(CCN(S(=O)(=O)c4c[nH]c5ncccc45)CC3)C2)c1` [Compound 507, 3-((S)-3-((R)-8-(1H-pyrrolo[2,3-b]pyridin-3-ylsulfonyl)-1-oxa-8-azaspiro[4.5]decan-3-ylamino)-2-hydroxypropoxy)-N-methylbenzenesulfonamide], the IC50 (commonly the point on the concentration scale where inhibition reaches its midpoint) is 58.8 nM.
Then `COCCN(C)S(=O)(=O)c1cccc(OC[C@@H](O)CNC2COC3(CCN(S(=O)(=O)c4ccc5ccccc5c4)CC3)C2)c1` (stereo partly drawn) [Compound 60, 3-((2S)-2-hydroxy-3-(8-(naphthalen-2-ylsulfonyl)-1-oxa-8-azaspiro[4.5]decan-3-ylamino)propoxy)-N-(2-methoxyethyl)-N-methylbenzenesulfonamide], with 58.8 nM.
Next, `CCn1cnc2cc(S(=O)(=O)N3CCC4(CC3)C[C@@H](NC[C@H](O)COc3cccc(S(=O)(=O)NC)c3)CO4)cnc21` [Compound 511, 3-((S)-3-((R)-8-(3-ethyl-3H-imidazo[4,5-b]pyridin-6-ylsulfonyl)-1-oxa-8-azaspiro[4.5]decan-3-ylamino)-2-hydroxypropoxy)-N-methylbenzenesulfonamide]: 20.4 nM.
Then `CNS(=O)(=O)c1cccc(OC[C@@H](O)CNC2COC3(CCN(S(=O)(=O)c4cccc(-c5cn(C)nc5C)c4)CC3)C2)c1` (stereo partly drawn) [Compound 68, 3-((2S)-3-(8-(3-(1,3-dimethyl-1H-pyrazol-4-yl)phenylsulfonyl)-1-oxa-8-azaspiro[4.5]decan-3-ylamino)-2-hydroxypropoxy)-N-methylbenzenesulfonamide], with 36.9 nM; and `CNS(=O)(=O)c1cccc(OC[C@@H](O)CNC2COC3(CCN(S(=O)(=O)c4ccc(S(C)(=O)=O)cc4)CC3)C2)c1` (stereo partly drawn) [Compound 37, 3-((2S)-2-hydroxy-3-(8-(4-(methylsulfonyl)phenylsulfonyl)-1-oxa-8-azaspiro[4.5]decan-3-ylamino)propoxy)-N-methylbenzenesulfonamide], with 49.3 nM; and `CNS(=O)(=O)c1cccc(OC[C@@H](O)CN[C@H]2COC3(CCN(S(=O)(=O)c4cnc5c(c4)ncn5C)CC3)C2)c1` [Compound 475, 3-((S)-2-hydroxy-3-((R)-8-(3-methyl-3H-imidazo[4,5-b]pyridin-6-ylsulfonyl)-1-oxa-8-azaspiro[4.5]decan-3-ylamino)propoxy)-N-methylbenzenesulfonamide], with 33.2 nM.
As for `O=S(=O)(NCCF)c1cccc(OC[C@@H](O)CN[C@H]2COC3(CCN(S(=O)(=O)c4cnc5ccccc5c4)CC3)C2)c1` [Compound 394, N-(2-fluoroethyl)-3-((S)-2-hydroxy-3-((R)-8-(quinolin-3-ylsulfonyl)-1-oxa-8-azaspiro[4.5]decan-3-ylamino)propoxy)benzenesulfonamide], the 50% inhibitory concentration (IC50) is 46.9 nM.
Next, `O=S(=O)(NC1CCOCC1)c1cccc(OC[C@@H](O)CNC2COC3(CCN(S(=O)(=O)c4ccc5ccccc5c4)CC3)C2)c1` (stereo partly drawn) [Compound 50, 3-((2S)-2-hydroxy-3-(8-(naphthalen-2-ylsulfonyl)-1-oxa-8-azaspiro[4.5]decan-3-ylamino)propoxy)-N-(tetrahydro-2H-pyran-4-yl)benzenesulfonamide]: 87.2 nM; `CN(C)CCCNS(=O)(=O)c1cccc(OC[C@@H](O)CNC2COC3(CCN(S(=O)(=O)c4cccc(Cl)c4)CC3)C2)c1` (stereo partly drawn) [Compound 307, 3-((2S)-3-(8-(3-chlorophenylsulfonyl)-1-oxa-8-azaspiro[4.5]decan-3-ylamino)-2-hydroxypropoxy)-N-(3-(dimethylamino)propyl)benzenesulfonamide]: 3370 nM; `CNS(=O)(=O)c1cccc(OC[C@@H](O)CNC2COC3(CCN(S(=O)(=O)c4ccccn4)CC3)C2)c1` (stereo partly drawn) [Compound 322, 3-((2S)-2-hydroxy-3-(8-(pyridin-2-ylsulfonyl)-1-oxa-8-azaspiro[4.5]decan-3-ylamino)propoxy)-N-methylbenzenesulfonamide]: 73.5 nM.
`CNS(=O)(=O)c1cccc(OC[C@@H](O)CN[C@H]2COC3(CCN(S(=O)(=O)c4ccc5[nH]cnc5c4)CC3)C2)c1` [Compound 503, 3-((S)-3-((R)-8-(1H-benzo[d]imidazol-5-ylsulfonyl)-1-oxa-8-azaspiro[4.5]decan-3-ylamino)-2-hydroxypropoxy)-N-methylbenzenesulfonamide]: the IC50 was 28.9 nM.
Next, `C[C@@H](CO)NS(=O)(=O)c1cccc(OC[C@@H](O)CNC2COC3(CCN(S(=O)(=O)c4ccc5ccccc5c4)CC3)C2)c1` (stereo partly drawn) [Compound 48, 3-((2S)-2-hydroxy-3-(8-(naphthalen-2-ylsulfonyl)-1-oxa-8-azaspiro[4.5]decan-3-ylamino)propoxy)-N—((S)-1-hydroxypropan-2-yl)benzenesulfonamide]: 133 nM; `CNS(=O)(=O)c1cccc(OC[C@@H](O)CN[C@@H]2COC3(CCN(S(=O)(=O)c4cccc5nsnc45)CC3)C2)c1` [Compound 244, 3-((S)-3-((S)-8-(benzo[c][1,2,5]thiadiazol-4-ylsulfonyl)-1-oxa-8-azaspiro[4.5]decan-3-ylamino)-2-hydroxypropoxy)-N-methylbenzenesulfonamide]: 76.1 nM; `CNS(=O)(=O)c1cccc(OC[C@@H](O)CNC2COC3(CCN(S(=O)(=O)c4ccc(OC)cc4)CC3)C2)c1` (stereo partly drawn) [Compound 18, 3-((2S)-2-hydroxy-3-(8-(4-methoxyphenylsulfonyl)-1-oxa-8-azaspiro[4.5]decan-3-ylamino)propoxy)-N-methylbenzenesulfonamide]: 20.8 nM.
As to `CNS(=O)(=O)c1cccc(OC[C@@H](O)CNC2COC3(CCN(S(=O)(=O)c4cccc(CN)c4)CC3)C2)c1` (stereo partly drawn) [Compound 389, 3-((2S)-3-(8-(3-(aminomethyl)phenylsulfonyl)-1-oxa-8-azaspiro[4.5]decan-3-ylamino)-2-hydroxypropoxy)-N-methylbenzenesulfonamide], the 50% inhibitory concentration (IC50) worked out at 475 nM.
As to `CNS(=O)(=O)c1cccc(OC[C@@H](O)CNC2COC3(CCN(S(=O)(=O)c4ccc(Cl)c(C)c4)CC3)C2)c1` (stereo partly drawn) [Compound 151, 3-((2S)-3-(8-(4-chloro-3-methylphenylsulfonyl)-1-oxa-8-azaspiro[4.5]decan-3-ylamino)-2-hydroxypropoxy)-N-methylbenzenesulfonamide], the IC50 came to 5.38 nM.
Then `CC(C)(C)NS(=O)(=O)c1cccc(OC[C@@H](O)CNC2COC3(CCN(S(=O)(=O)c4ccc5ccccc5c4)CC3)C2)c1` (stereo partly drawn) [Compound 94, N-tert-butyl-3-((2S)-2-hydroxy-3-(8-(naphthalen-2-ylsulfonyl)-1-oxa-8-azaspiro[4.5]decan-3-ylamino)propoxy)benzenesulfonamide], with 59.8 nM; and `CNS(=O)(=O)c1cccc(OC[C@@H](O)CNC2COC3(CCN(S(=O)(=O)c4cccc(-c5sc(C)nc5C)c4)CC3)C2)c1` (stereo partly drawn) [Compound 73, 3-((2S)-3-(8-(3-(2,4-dimethylthiazol-5-yl)phenylsulfonyl)-1-oxa-8-azaspiro[4.5]decan-3-ylamino)-2-hydroxypropoxy)-N-methylbenzenesulfonamide], with 22.1 nM.
Next, `CNS(=O)(=O)c1cccc(OC[C@@H](O)CNC2COC3(CCN(S(=O)(=O)c4cccc(-c5ccc(CNCC(F)(F)F)cc5)c4)CC3)C2)c1` (stereo partly drawn) [Compound 321, 3-((2S)-2-hydroxy-3-(8-(4′-((2,2,2-trifluoroethylamino)methyl)biphenyl-3-ylsulfonyl)-1-oxa-8-azaspiro[4.5]decan-3-ylamino)propoxy)-N-methylbenzenesulfonamide]: 70.5 nM.
